Measured values taken from patent US8372831B2, “Isoxazoline linked pyrrolo[2,1-c][1,4]benzodiazepine hybrids as potential anticancer agents and the process for preparation thereof” (Council of Scientific & Industrial Research, priority 2008, dated 2013).

Experiments:
Type in all cases: cell-based, human
A498 = assay: NCI SRB cytotoxicity, A498 (renal); conditions: 48 hrs exposure
Method: (§1) Biological Activity: The in vitro biological activity studies were carried out at the National Cancer Institute, Maryland, USA.
(§2) The C8-linked isoxazoline-PBD hybrids have been tested against sixty human tumour cell lines derived from nine cancer types (leukemia, non-small cell lung cancer, colon cancer, CNS cancer, melanoma, ovarian cancer, renal cancer, prostate cancer and breast cancer) as per NCI protocol. For each compound, dose response curves for individual cell lines have been measured at a minimum of five concentrations at 10 fold dilutions. A protocol of 48 hrs continuous drug exposure has been used, and a sulforhodamine B (SRB) protein assay was used to estimate cell viability or growth. The concentration for 50% cell growth inhibition (GI50), total cell growth inhibition (TGI, 0% growth) and 50% cell death (LC50, […]) compared with the control has been calculated (FIG. 2).
(§3) Compound 5b and 9b have been evaluated for in vitro cytotoxicity in sixty cell lines from nine human cancer types of lung (Hop-62, NCI-H226, NCI-H522), leukemia (K-562, SR), colon (HCT-116, HCT-15, HCC-2998), CNS(SF-539), melanoma (SK-MEL-5, UACC-62, M14), ovarian (IGROV1), renal (A498), prostate (PC3) breast (BT-549, MDA-MB-435, HS578T) origin. The results are expressed as percent of cell growth determined relative to that of untreated control cells (Table 1).

NCI-H322M = assay: NCI SRB cytotoxicity, NCI-H322M (non-small cell lung); conditions: Non-smallcell lung, 48 hrs exposure
Method: as §1, §2, §3

OVCAR-3 = assay: NCI SRB cytotoxicity, OVCAR-3 (ovarian); conditions: 48 hrs exposure
Method: as §1, §2, §3

Row | SMILES | GI50 (A498) | GI50 (NCI-H322M) | GI50 (OVCAR-3)
1 | COc1ccc(C2CC(c3ccc(OC)c(OC)c3OC)=NO2)cc1OCCCCOc1cc2c(cc1OC)C(=O)N1CCC[C@H]1C=N2 (stereo partly drawn) [Compound 9b, (11aS)-7-(methyloxy)-8-(4-[(2-(methyloxy)-5-3-[2,3,4-tri(methyloxy)phenyl]-4,5-dihydro-5-isoxazolylphenyl)oxy]butyloxy)-2,3,5,11a-tetrahydro-1H-benzo[e]pyrrolo[1,2-a][1,4]diazepin-5-one] | 1720 nM | 3460 nM | 1940 nM
2 | COc1cc(C2=NOC(c3cc(OC)c(OC)c(OC)c3)C2)ccc1OCCCCOc1cc2c(cc1OC)C(=O)N1CCC[C@H]1C=N2 (stereo partly drawn) [Compound 5b, (11aS)-7-(methyloxy)-8-(4-[(2-(methyloxy)-4-5-[3,4,5-tri(methyloxy)phenyl]-4,5-dihydro-3-isoxazolylphenyl)oxy]butyloxy)-2,3,5,11a-tetrahydro-1H benzo[e]pyrrolo[1,2-a][1,4]diazepin-5-one] | – | 340 nM | 270 nM
